Measurements as given in ChEMBL document CHEMBL1212843, “Dual-target-directed 1,3-diphenylurea derivatives: BACE 1 inhibitor and metal chelator against Alzheimer's disease” (Bioorg Med Chem, 2010).

What was measured:
Beta-secretase 1 [1] = molecular target: T1, Beta-secretase 1 (Homo sapiens, UniProt P56817); test: Inhibition of BACE1 at 20 ug/ml by FRET assay
Beta-secretase 1 [2] = molecular target: T1, Beta-secretase 1; test: Inhibition of BACE1 by FRET assay; parameters: concentration or dose not given beside the values; details: concentration not given here

T1 sequence (P56817 whole entry): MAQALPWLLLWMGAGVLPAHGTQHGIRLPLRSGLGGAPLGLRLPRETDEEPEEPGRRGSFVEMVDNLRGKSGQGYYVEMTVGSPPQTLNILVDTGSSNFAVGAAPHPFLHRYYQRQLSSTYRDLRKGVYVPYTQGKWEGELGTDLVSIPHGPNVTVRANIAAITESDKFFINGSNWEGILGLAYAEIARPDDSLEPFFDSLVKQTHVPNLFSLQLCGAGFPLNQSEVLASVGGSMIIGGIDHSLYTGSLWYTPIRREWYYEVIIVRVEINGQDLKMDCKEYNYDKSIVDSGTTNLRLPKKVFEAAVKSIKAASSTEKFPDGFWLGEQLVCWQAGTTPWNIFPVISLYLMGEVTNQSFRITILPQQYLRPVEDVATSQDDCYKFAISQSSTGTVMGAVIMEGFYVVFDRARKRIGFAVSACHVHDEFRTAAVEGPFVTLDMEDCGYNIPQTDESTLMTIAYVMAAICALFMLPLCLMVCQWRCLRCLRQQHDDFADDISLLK

| Compound | IC50 (Beta-secretase 1 [1]) [µM] | inhibition (Beta-secretase 1 [2]) [%] |
| --- | --- | --- |
| O=C(Cc1ccccc1Cl)Nc1cc(Br)ccc1OCCNC1CCCCC1 | > 42.8 | 87.7 |
| NCCCCCCNCCOc1ccc(Br)cc1NC(=O)Cc1ccccc1Cl | 27.9 | – |
| CCCCCCNCCOc1ccc(Br)cc1NC(=O)Cc1ccccc1Cl | 29.4 | 79.4 |
| O=C(Cc1ccccc1)Nc1cc(Br)ccc1OCCN1CCOCC1 | – | 24.5 |
| NCCCNCCOc1ccc(Br)cc1NC(=O)Cc1ccccc1Cl | > 45.2 | 77.9 |
| O=C(Cc1ccccc1Cl)Nc1cc(Br)ccc1OCCN1CCCCC1 | > 44.2 | 61.9 |
| O=C(Cc1cccc([N+](=O)[O-])c1)Nc1cc(Br)ccc1OCCN1CCOCC1 | – | 20.3 |
| O=C(Cc1ccccc1Cl)Nc1cc(Br)ccc1OCCN1CCOCC1 | – | 36.8 |
| O=C(Cc1ccccc1Cl)Nc1cc(Br)ccc1OCCNC1CC1 | 37.6 | 77.1 |
| O=C(Cc1ccccc1Cl)Nc1cc(Br)ccc1OCCNCCCCCO | > 42.5 | 67.5 |
| COc1cccc(CC(=O)Nc2cc(Br)ccc2OCCN2CCOCC2)c1 | – | 20.9 |
